Data from patent publication US12577217B2, “15-PGDH inhibitor” (KYORIN Pharmaceutical Co., Ltd., priority 2019, dated 2026).
pIC50: −log10 of the molar value. Where a name gives a salt, the structure may show the parent alone.

Target: T1, recombinant human 15-PGDH (Homo sapiens, UniProt P15428)
T1 construct: purchased R&D Systems
T1 sequence (P15428 1-266): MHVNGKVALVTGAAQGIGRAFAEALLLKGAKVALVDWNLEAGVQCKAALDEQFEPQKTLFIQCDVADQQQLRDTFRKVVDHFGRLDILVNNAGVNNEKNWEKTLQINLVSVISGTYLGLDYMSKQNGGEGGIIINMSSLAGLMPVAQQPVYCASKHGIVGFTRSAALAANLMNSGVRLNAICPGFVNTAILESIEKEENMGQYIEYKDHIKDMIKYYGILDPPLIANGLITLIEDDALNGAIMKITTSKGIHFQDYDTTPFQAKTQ
Test: 15-PGDH enzyme inhibition test
Format: biochemical
Conditions: 4 nM recombinant human 15-PGDH, 30 μM PGE2, 1 mM NAD+, 60 minutes after starting the reaction; read-out: IC50 Value
Outline: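 4 nM recombinant human enzyme pre-incubated with compound 12 min at room temperature in 50 mM Tris-HCl pH 8.0 with 0.01% Tween 20 and 0.01% bovine gamma globulin. Reaction started with 30 μM PGE2 and 1 mM NAD+, read after 60 min by fluorescence (ex 340/em 440 nm). IC50 from concentration-response curve.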

| pIC50 | SMILES |
| --- | --- |
| > 8.00 | CC(=O)N1CCN(c2ccn3c(=O)n(C)nc3c2)c2ncc(C(=O)N3CCCCC3)cc21 [Example 29-3] |
| > 8.00 | CN1CCN(c2ccn3c(=O)n(C)nc3c2)c2ncc(C(=O)N3CCC(F)(F)CC3)cc21 [Example 29-4] |
| > 8.00 | CCN1CCN(c2ccn3c(=O)n(C)nc3c2)c2ncc(C(=O)N3CCC(F)(F)CC3)cc21 [Example 29-5] |
| 7.00 to 8.00 | Cn1nc2cc(N3CCN(c4ccccc4)c4cc(C(=O)N5CCC(F)(F)CC5)cnc43)ccn2c1=O [Example 30-1, 7-(7-(4,4-Difluoropiperidine-1-carbonyl)-1-phenyl-2,3-dihydropyrido[2,3-b]pyrazin-4(1H)-yl)-2-methyl-[1,2,4]triazolo[4,3-a]pyridin-3 (2H)-one] |
| 7.00 to 8.00 | Cn1nc2cc(N3CCN(c4ccc(C#N)cc4)c4cc(C(=O)N5CCC(F)(F)CC5)cnc43)ccn2c1=O [Example 30-2] |
| 7.00 to 8.00 | COC(=O)c1ccc(N2CCN(c3ccn4c(=O)n(C)nc4c3)c3ncc(C(=O)N4CCC(F)(F)CC4)cc32)cc1 [Example 30-3] |
| > 8.00 | Cn1nc2cc(N3CCN(c4ncc(Cl)s4)c4cc(C(=O)N5CCC(F)(F)CC5)cnc43)ccn2c1=O [Example 30-4] |
| < 7.00 | Cn1nc2cc(N3CCN(c4cccnc4)c4cc(C(=O)N5CCC(F)(F)CC5)cnc43)ccn2c1=O [Example 30-5] |
| < 7.00 | CC(=O)NC(C)(C)c1ccc(N2CCOc3cc(C(=O)N4CCCCC4)cnc32)cc1 [Example 31-1] |
| < 7.00 | CC(C)(NS(C)(=O)=O)c1ccc(N2CCOc3cc(C(=O)N4CCCCC4)cnc32)cc1 [Example 31-2] |
| < 7.00 | CNC1CCCN(C(=O)c2cnc3c(c2)OCCN3c2ccn3c(=O)n(C)nc3c2)C1 (stereo not drawn) [Example 32-1, 2-Methyl-7-(7-(3-(methylamino)piperidine-1-carbonyl)-2,3-dihydro-4H-pyrido[3,2-b][1,4]oxazin-4-yl)-[1,2,4]triazolo[4,3-a]pyridin-3(2H)-one Trifluoroacetate] |
| < 7.00 | CN(C)C1CCCN(C(=O)c2cnc3c(c2)OCCN3c2ccn3c(=O)n(C)nc3c2)C1 (stereo not drawn) [Example 33-1, 7-(7-(3-(Dimethylamino)piperidine-1-carbonyl)-2,3-dihydro-4H-pyrido[3,2-b] [1,4]oxazin-4-yl)-2-methyl-[1,2,4]triazolo[4,3-a]pyridin-3(2H)-one] |
| < 7.00 | CC(=O)N(C)C1CCCN(C(=O)c2cnc3c(c2)OCCN3c2ccn3c(=O)n(C)nc3c2)C1 (stereo not drawn) [Example 34-1, N-Methyl-N-(1-(4-(2-methyl-3-oxo-2,3-dihydro-[1,2,4]triazolo[4,3-a]pyridin-7-yl)-3,4-dihydro-2H-pyrido[3,2-b][1,4]oxazin-7-carbonyl)piperidin-3-yl)acetamide] |
| < 7.00 | Cn1nc2cc(N3CCOc4cc(C(=O)N5CCC[C@H]5C(=O)O)cnc43)ccn2c1=O [Example 35-1, (4-(2-Methyl-3-oxo-2,3-dihydro-[1,2,4]triazolo[4,3-a]pyridin-7-yl)-3,4-dihydro-2H-pyrido[3,2-b][1,4]oxazine-7-carbonyl)-L-proline] |
| < 7.00 | Cn1nc2cc(N3CCOc4cc(C(=O)N5CCC[C@@H]5C(=O)O)cnc43)ccn2c1=O [Example 35-2] |
| < 7.00 | Cn1nc2cc(N3CCOc4cc(C(=O)N5CCC[C@H]5C(N)=O)cnc43)ccn2c1=O [Example 36-1, (S)-1-(4-(2-Methyl-3-oxo-2,3-dihydro-[1,2,4]triazolo[4,3-a]pyridin-7-yl)-3,4-dihydro-2H-pyrido[3,2-b][1,4]oxazine-7-carbonyl)pyrrolidine-2-carboxamide] |
| < 7.00 | Cn1nc2cc(N3CCOc4cc(C(=O)N5CCC[C@@H]5C(N)=O)cnc43)ccn2c1=O [Example 36-2] |
| > 8.00 | Cn1nc2cc(N3CCOc4cc(C(=O)N5C=CCCC5)cnc43)ccn2c1=O [Example 37-1, 2-Methyl-7-(7-(1,2,3,4-tetrahydropyridine-1-carbonyl)-2,3-dihydro-4H-pyrido[3,2-b][1,4]oxazin-4-yl)-[1,2,4]triazolo[4,3-a]pyridin-3(2H)-one] |
